{"source": "patent US12257325B2", "about": "“Chelating platform for delivery of radionuclides” (priority 2016, dated 2025)", "molecules": {"B1": {"name": "Scn:[Pu^IV(3,43-LI(CAM))]: siderocalin adduct of the ^238Pu(IV) complex of 3,4,3-LI(CAM), Scn:chelator:Pu 100:100:1 (conjugate, UniProt P80188 21-198, looked up)", "Neutrophil …": "QDSTSDLIPAPPLSKVPLQQNFQDNQFQGKWYVVGLAGNAILREDKDPQKMYATIYELKEDKSYNVTSVLFRKKKCDYWIRTFVPGCQPGEFTLGNIKSYPGLTSYLVRVVSTNYNQHAMVFFKKVSQNREYFKITLYGRTKELTSELKENFIRFSKSLGLPENHIVFPVPIDQCIDG", "modifications": "bound Pu(IV)-3,4,3-LI(CAM) complex"}}, "key": {"[1]": {"conditions": "cited from earlier work"}, "[2]": {"experiment": "Incremental spectrophotometric titrations: stability constants of Zr(IV) complexes (DTPA competition)", "format": "physicochemical", "conditions": "1 equivalent of Zr(IV); calculated speciation diagram", "experimental": "(§1) Solution Thermodynamics. All titrant solutions were degassed by boiling for 1 h while being purged under Ar. Carbonate-free 0.1 M KOH was prepared from concentrate (J.T Baker Dilut-It) and was standardized by titrating against 0.1 M potassium hydrogen phthalate (99.95%, Sigma Aldrich). Solutions of 0.1 M HCl were similarly prepared and were standardized by titrating against TRIS (99.9%, J.T. Baker). The glass electrode (Metrohm-Micro Combi-response to [H+]) used for the pH measurements was calibrated at 25.0° C. and at an ionic strength of 0.1 M (KCl) before each potentiometric or spectrophotometric titration. The calibration data were analyzed using the program GLEE (Gans & O'Sullivan, Talanta, 2000, 51 (1): 33-37) to refine for the E° and slope. […]\n(§2) Incremental Spectrophotometric Titrations. […] For the 3,4,3-LI(CAM) protonation (and Eu(III)-3,4,3-LI(CAM) complexes), titrations were performed with an initial concentration of 50 μM of 3,4,3-LI(CAM) (and 50 μM of Eu(III)) resulting in absorbance values included between 0 and 1.0 throughout the titration. […]\n(§3) Data Treatment. […] All metal and chelator concentrations were held at estimated values determined from the volume of standardized stock solutions. All species formed with 3,4,3-LI(CAM) were considered to have significant absorbance to be observed in the UV-vis spectra and were therefore included in the refinement process. […]"}, "[3]": {"experiment": "Incremental spectrophotometric titrations: stability constants of Eu(III) complexes", "format": "physicochemical", "conditions": "1 equivalent of Eu(III); calculated speciation diagram", "experimental": "as §1, §2, §3"}, "[4]": {"experiment": "Incremental spectrophotometric titrations: stability constants of Th(IV) complexes (DTPA competition)", "format": "physicochemical", "conditions": "1 equivalent of Th(IV); calculated speciation diagram", "experimental": "as §1, §2, §3"}, "[5]": {"target": "T1, recombinant wild-type Scn (Homo sapiens, UniProt P80188)", "T1 construct": "made in house", "experiment": "Fluorescence Quenching Binding Assay", "experimental": "Metal, Chelator, and Protein Working Solutions. The trivalent lanthanide Ln(III) working stock solutions were prepared in standardized 0.1 M HCl. A Zr(IV) stock solution was prepared by dissolving ZrCl4 in 3.0 M H2SO4, to prevent hydrolysis. The metal salt ZrCl4 was handled and stored in a glovebox kept under inert atmosphere. The Zr(IV) stock solution was standardized against EDTA, with xylene orange as the indicator (Welcher, F. J. The analytical uses of ethylenediamine tetraacetic acid; 1958). A Th(IV) stock solution was prepared in 0.1 M H2SO4. […]\nFluorescence Quenching Binding Assay. […] Fluorescence quenching of Scn was measured after each titrant addition on a HORIBA Jobin Yvon IBH FluoroLog-3 spectrofluorimeter, with 3 nm slit band-pass, using the characteristic excitation and emission wavelengths λexc=280 and λem=320-360 nm. The intrinsic fluorescence in proteins is generally attributed to tryptophan residues; two residues W31 and W79 are found in the proximity of the Scn binding site. Fluorescence values were corrected for dilution upon addition of titrant. Fluorescence data were analyzed by nonlinear regression analysis of fluorescence response versus chelator concentration using a one-site binding model as described elsewhere. […]"}, "[6]": {"experiment": "Incremental spectrophotometric titrations: protonation constants of 3,4,3-LI(CAM)", "format": "physicochemical", "conditions": "I=0.1 M (KCl), T=25° C.; lower values = higher acidity", "experimental": "as §1, §2, §3"}, "[7]": {"experiment": "In Vivo Biodistribution Assay with ^238Pu tracer", "set-up": "species or system CD-1 mice", "conditions": "mice, intravenous", "experimental": "In Vivo Biodistribution Assay. All procedures and protocols used in the presented in vivo studies were reviewed and approved by the Institutional Animal Care and Use Committee at Lawrence Berkeley National Laboratory and performed in AAALAC accredited facilities. The animals used were adult female CD-1 mice (180±7 days old, 40.8±5.8 g). Solutions of ^238Pu complexed by 3,4,3-LI(CAM) and Scn:3,4,3-LI(CAM) were prepared in situ at molar ratios protein:ligand:^238Pu of 0:100:1 and 100:100:1, respectively by mixing and incubating the appropriate quantities of ^238Pu(NO3)4, ligand, and protein in phosphate-buffered saline (PBS) to reach a ^238Pu concentration of 12 ng L-1. Protein solutions were washed thrice with PBS using 10 kDa molecular weight cut-off membrane-based centrifugal filters, and all solutions were filter-sterilized (0.22 μm) prior to injection. Under isoflurane anesthesia, groups of three normally fed mice were injected intravenously with 0.2 mL of a complex solution (370 Bq per mouse). After injection of the ^238Pu tracer, mice were weighed, identified, and housed in groups of three in plastic stock cages lined with a 0.5 cm layer of highly absorbent low-ash pelleted cellulose bedding (Alpha-dri) for separation of urine and feces. Mice were given water and food ad libitum and euthanized at 4, 24, or 48 h after tracer injection. All experiments using ^238Pu tracers were managed as metabolic balance studies, in which tissues and excreta were analyzed for ^238Pu by liquid scintillation counting on a Perkin Elmer Packard Tri-Carb model B4430. The methods of sample collection, preparation, radioactivity measurements, and data reduction have been published previously (Sturzbecher-Hoehne, et al., Dalton Transactions, 2011, 40 (33): 8340-8346: Kullgren, et al., Toxicology mechanisms and methods, 2013, 23 (1), 18-26; Durbin, et al., Health physics 2000, 78 (5): 511-521). Those methods provide quantitative measurements of radioactivity in biological samples; material recoveries averaged 99% of the amount injected in these experiments.\nBiodistribution Evaluation. To evaluate the in vivo retention and excretion patterns of M(IV)-3,4,3-LI(CAM) complexes and their Scn adducts, ^238Pu(IV) was used as a radiolabel. ^238Pu(IV) likely behaves similarly to Th(IV) and Zr(IV) (the ionic radius of Pu^4+ is included between those of Th^4+ and Zr^4+) (Sturzbecher-Hoehne, et al., Inorganic Chemistry, 2015, 54 (7): 3462-3468) but allows for more accurate metabolic balance experiments due to its relatively long radioactive half-life (87.8 yr) and low specific activity (0.63 TBq/g), compared to the therapeutic ^227Th (18.68 d; 1139 TBq/g) and imaging ^89Zr (78.42 h; 16,630 TBq/g) isotopes. […] In this in vivo stability experiment, ^238Pu-ligand complex solutions were formed in situ (Ligand:Pu and Scn:Chelator:Pu ratios of 100:1 and 100:100:1, respectively) and administered intravenously. Mice were euthanized 4, 24, or 48 h after the metal injection, and tissues and excreta were radioanalyzed for ^238Pu content (FIG. 14)."}}, "data": [{"molecule": "O=C(NCCCN(CCCCN(CCCNC(=O)c1cccc(=O)n1O)C(=O)c1cccc(=O)n1O)C(=O)c1cccc(=O)n1O)c1cccc(=O)n1O", "note": "[3,4,3-LI(1,2-HOPO)]", "values": [{"measurement": "pH at which 4+ metal complexes are formed", "setting": "[1]; 4+ metals, very acidic conditions", "value": "< 0"}, {"measurement": "pH at which Eu(III) species appear", "setting": "[1]; Eu(III), same conditions", "value": 1}]}, {"molecule": "O=C(NCCCN(CCCCN(CCCNC(=O)c1cccc(O)c1O)C(=O)c1cccc(O)c1O)C(=O)c1cccc(O)c1O)c1cccc(O)c1O", "note": "[3,4,3-LI(CAM)]", "values": [{"measurement": "pH at which complexes start forming", "setting": "[2]", "value": "~3"}, {"measurement": "pH at which complexation starts", "setting": "[3]", "value": 5}, {"measurement": "pH at which complexes start forming", "setting": "[4]", "value": "~3"}, {"measurement": "Kd", "setting": "[5]", "value": "1.2 ± 0.4", "unit": "nM"}, {"measurement": "overall acidity ΣpKa5-8", "setting": "[6]", "value": 45.4}]}, {"molecule": "B1", "values": [{"measurement": "in vivo stability", "setting": "[7]", "value": "high in vivo stability"}, {"measurement": "injected ^238Pu excreted by 48 hours", "setting": "[7]; 370 Bq per mouse, 48 h", "value": 30, "unit": "%"}, {"measurement": "^238Pu found in the kidneys", "setting": "[7]; 4 h after administration", "value": "up to 52%"}, {"measurement": "^238Pu in urine versus feces", "setting": "[7]; all time points (4, 24, 48 h)", "value": "more ^238Pu was found in the urine than in the feces"}, {"measurement": "retention and excretion pattern (kidney vs. liver)", "setting": "[7]; early time points", "value": "favors elimination through the renal system"}]}]}
